From patent US11629143B2, “HipK4 inhibitors and uses thereof” (Vibliome Therapeutics, LLC, priority 2020, dated 2023)

Assays:
Assay in all cases: Kinase panel (mobility shift)
Assay type in all cases: biochemical
[1] = molecular target: T1, EPH-A8 (Homo sapiens, UniProt P29322)
T1 sequence (P29322 28-1005): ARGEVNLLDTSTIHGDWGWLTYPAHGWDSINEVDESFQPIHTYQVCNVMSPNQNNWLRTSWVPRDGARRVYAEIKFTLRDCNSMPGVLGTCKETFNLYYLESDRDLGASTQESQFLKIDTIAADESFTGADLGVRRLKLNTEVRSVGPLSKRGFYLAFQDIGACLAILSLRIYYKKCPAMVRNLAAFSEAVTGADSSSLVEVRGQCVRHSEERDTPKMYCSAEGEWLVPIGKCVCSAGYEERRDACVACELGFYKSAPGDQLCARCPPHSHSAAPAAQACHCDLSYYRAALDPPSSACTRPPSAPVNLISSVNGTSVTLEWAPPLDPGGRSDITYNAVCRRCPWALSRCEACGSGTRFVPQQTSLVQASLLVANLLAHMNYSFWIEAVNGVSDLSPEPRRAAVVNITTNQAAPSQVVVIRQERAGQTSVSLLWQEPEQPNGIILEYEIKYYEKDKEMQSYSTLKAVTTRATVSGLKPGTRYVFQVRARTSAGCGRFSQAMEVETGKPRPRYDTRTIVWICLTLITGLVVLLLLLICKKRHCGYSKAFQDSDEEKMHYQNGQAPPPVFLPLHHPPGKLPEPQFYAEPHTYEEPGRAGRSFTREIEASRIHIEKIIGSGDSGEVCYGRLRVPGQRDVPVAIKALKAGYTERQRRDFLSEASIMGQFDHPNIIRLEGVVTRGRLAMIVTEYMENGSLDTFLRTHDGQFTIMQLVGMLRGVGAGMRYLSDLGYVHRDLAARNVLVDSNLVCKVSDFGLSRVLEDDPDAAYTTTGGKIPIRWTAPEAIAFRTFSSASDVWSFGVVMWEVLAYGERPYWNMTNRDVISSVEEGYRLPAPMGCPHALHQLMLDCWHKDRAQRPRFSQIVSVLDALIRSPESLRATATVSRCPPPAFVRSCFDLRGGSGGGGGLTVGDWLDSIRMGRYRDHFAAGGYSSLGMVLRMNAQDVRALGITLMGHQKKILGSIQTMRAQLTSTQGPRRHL
Method: (§1) The disclosed compounds were tested for activity against a panel of 299 kinases. The target enzyme was incubated with fluorescently labeled substrate and test compounds in a standardized reaction mixture in 384 well plates. Upon termination of the reaction, samples were introduced onto microfluidic chips. The samples migrated through channels in the chips and product and substrate were separated based on the difference in their charge (electrophoretic mobility shift). Enzyme activity was measured by direct comparison of the fluorescence in the product and substrate peaks. […] In the tables A=95% or greater at 5 um, B=90%-94% at 5 um, and C=80%-89% at 5 um. [note to draft: we included category D for 50-79 and category E is less than 50%. Feel free to remove if not needed)

[2] = molecular target: T2, EPH-B4 (Homo sapiens, UniProt P54760)
T2 sequence (P54760 16-987): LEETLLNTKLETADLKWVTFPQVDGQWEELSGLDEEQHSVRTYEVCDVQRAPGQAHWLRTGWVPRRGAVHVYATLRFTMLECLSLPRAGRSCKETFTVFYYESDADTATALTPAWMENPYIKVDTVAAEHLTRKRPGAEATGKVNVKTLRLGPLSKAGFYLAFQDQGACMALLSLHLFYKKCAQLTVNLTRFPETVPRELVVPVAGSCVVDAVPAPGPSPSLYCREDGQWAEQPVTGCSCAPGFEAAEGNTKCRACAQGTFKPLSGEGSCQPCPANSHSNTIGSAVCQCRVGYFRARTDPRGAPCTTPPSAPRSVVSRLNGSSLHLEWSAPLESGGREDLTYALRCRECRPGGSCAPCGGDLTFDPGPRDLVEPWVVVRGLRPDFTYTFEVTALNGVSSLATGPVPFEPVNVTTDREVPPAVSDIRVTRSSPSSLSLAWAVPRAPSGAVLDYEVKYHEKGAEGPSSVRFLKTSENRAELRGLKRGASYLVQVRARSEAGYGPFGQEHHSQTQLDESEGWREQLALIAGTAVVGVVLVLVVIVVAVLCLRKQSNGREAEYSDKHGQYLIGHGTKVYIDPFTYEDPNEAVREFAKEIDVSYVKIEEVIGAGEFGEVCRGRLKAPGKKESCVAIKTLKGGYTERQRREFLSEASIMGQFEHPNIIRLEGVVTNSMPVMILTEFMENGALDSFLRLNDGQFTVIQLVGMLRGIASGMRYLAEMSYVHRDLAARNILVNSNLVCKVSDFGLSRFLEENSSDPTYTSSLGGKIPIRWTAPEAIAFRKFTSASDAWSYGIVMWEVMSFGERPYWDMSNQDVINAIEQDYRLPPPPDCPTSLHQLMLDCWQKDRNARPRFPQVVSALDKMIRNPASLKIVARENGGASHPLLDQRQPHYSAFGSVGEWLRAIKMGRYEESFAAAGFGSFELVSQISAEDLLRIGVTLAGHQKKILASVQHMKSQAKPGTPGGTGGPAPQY
Method: as §1

[3] = molecular target: T3, MUSK (Homo sapiens, UniProt O15146)
T3 sequence (O15146 24-869): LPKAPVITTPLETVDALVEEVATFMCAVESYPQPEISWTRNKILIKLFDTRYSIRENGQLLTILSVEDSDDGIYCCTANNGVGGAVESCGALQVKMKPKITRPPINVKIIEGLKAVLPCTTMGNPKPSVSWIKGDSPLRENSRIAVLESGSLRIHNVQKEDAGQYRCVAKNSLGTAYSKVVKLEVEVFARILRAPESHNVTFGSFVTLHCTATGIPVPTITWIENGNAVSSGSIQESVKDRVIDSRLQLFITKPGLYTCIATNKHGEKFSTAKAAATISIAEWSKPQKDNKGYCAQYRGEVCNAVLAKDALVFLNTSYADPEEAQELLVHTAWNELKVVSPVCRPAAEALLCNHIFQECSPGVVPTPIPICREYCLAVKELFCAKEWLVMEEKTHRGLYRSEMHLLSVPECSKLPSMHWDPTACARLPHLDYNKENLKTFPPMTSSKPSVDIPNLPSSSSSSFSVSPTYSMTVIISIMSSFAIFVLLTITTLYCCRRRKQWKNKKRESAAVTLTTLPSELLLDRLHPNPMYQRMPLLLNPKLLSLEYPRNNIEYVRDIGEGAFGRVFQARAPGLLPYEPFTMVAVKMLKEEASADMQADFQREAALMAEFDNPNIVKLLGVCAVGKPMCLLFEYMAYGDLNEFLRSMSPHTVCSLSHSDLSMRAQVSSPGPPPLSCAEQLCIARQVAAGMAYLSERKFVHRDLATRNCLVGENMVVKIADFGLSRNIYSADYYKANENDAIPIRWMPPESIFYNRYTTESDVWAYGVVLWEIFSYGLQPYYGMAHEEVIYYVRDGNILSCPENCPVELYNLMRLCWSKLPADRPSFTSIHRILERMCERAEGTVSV
Method: as §1

Row | inhibition at 5 µM [1] | inhibition at 5 µM [2] | inhibition at 5 µM [3] | Compound
1 | 80 to 89% | 80 to 89% | 80 to 89% | CNC(=O)c1cc(Oc2ccc(NC(=O)c3nc(C4CC4)oc3-c3ccc(F)cc3)cc2F)ccn1 [Compound 26]
2 | 50 to 79% | < 50% | < 50% | CSc1nc(C(=O)Nc2ccc(Oc3ccnc(C(=O)NCCN(C)C)c3)c(F)c2)c(-c2ccc(F)cc2)o1 [Compound 41]
3 | < 50% | < 50% | < 50% | CNC(=O)c1ccc(Oc2ccc(NC(=O)c3nc(Cl)oc3-c3ccc(F)cc3)c(F)c2)cn1 [Compound 36]
4 | 50 to 79% | < 50% | < 50% | CNC(=O)c1cc(Oc2ccc(NC(=O)c3nc(OC)oc3-c3ccc(F)c(F)c3)cc2F)ccn1 [Compound 24]
5 | < 50% | < 50% | < 50% | CSc1nc(C(=O)Nc2ccc(Oc3ccnc(C(=O)NC4CCN(C)CC4)c3)c(F)c2)c(-c2ccc(F)cc2)o1 [Compound 42]
6 | 80 to 89% | 50 to 79% | < 50% | CNC(=O)c1cc(Oc2ccc(NC(=O)c3nc(OC4CC4)oc3-c3ccc(F)cc3)cc2F)ccn1 [Compound 32]
7 | 50 to 79% | < 50% | < 50% | CNC(=O)c1cc(Oc2ccc(NC(=O)c3nc(SC)oc3-c3ccc(Cl)s3)cc2)ccn1 [Compound 5]
8 | < 50% | < 50% | < 50% | CNC(=O)c1cc(Oc2ccc(NC(=O)c3nc(SC)oc3-c3ccc(OC)cc3)cc2)ccn1 [Compound 7]
9 | 90 to 94% | 80 to 89% | 80 to 89% | CNC(=O)c1cc(Oc2ccc(NC(=O)c3nc(COC)oc3-c3ccc(F)cc3)cc2F)ccn1 [Compound 30]
10 | < 50% | < 50% | < 50% | CNC(=O)c1cc(Oc2ccc(NC(=O)c3nc(SC)oc3-c3ccc(F)s3)cc2F)ccn1 [Compound 16]
11 | 50 to 79% | 50 to 79% | 50 to 79% | CNC(=O)c1cc(Oc2ccc(NC(=O)c3nc(SC)oc3-c3ccc(F)cc3F)cc2F)ccn1 [Compound 12]
12 | 50 to 79% | < 50% | < 50% | CNC(=O)c1cc(Oc2ccc(NC(=O)c3nc(NC)sc3-c3ccc(F)cc3F)cc2F)ccn1 [Compound 21]
13 | 50 to 79% | 50 to 79% | < 50% | CNC(=O)c1cc(Oc2c(F)cc(NC(=O)c3nc(NC)sc3-c3ccc(F)cc3)cc2F)ccn1 [Compound 19]
14 | 80 to 89% | 80 to 89% | 50 to 79% | CSc1nc(C(=O)Nc2ccc(Oc3ccnc(-c4cnn(C)c4)c3)c(F)c2)c(-c2ccc(F)cc2)o1 [Compound 11]
15 | < 50% | < 50% | < 50% | CSc1nc(C(=O)Nc2ccc(Oc3ccnc(C(=O)NC4COC4)c3)c(F)c2)c(-c2ccc(F)s2)o1 [Compound 28]
16 | 80 to 89% | 50 to 79% | < 50% | CNC(=O)c1cc(Oc2ccc(NC(=O)c3nc(OC)oc3-c3ccc(F)cc3)cc2F)ccn1 [Compound 15]
17 | < 50% | < 50% | < 50% | CNC(=O)c1cc(Oc2ccc(NC(=O)c3nc(NC)oc3-c3ccc(F)s3)cc2F)ccn1 [Compound 17]
18 | 80 to 89% | 80 to 89% | < 50% | CNC(=O)c1cc(Oc2ccc(NC(=O)c3nc(SC(C)C)oc3-c3ccc(F)cc3)cc2F)ccn1 [Compound 34]
19 | 50 to 79% | < 50% | < 50% | CNC(=O)c1cc(Oc2ccc(NC(=O)c3nc(SC)oc3-c3ccc(F)c(F)c3)cc2)ccn1 [Compound 4]
20 | 50 to 79% | 50 to 79% | < 50% | CNC(=O)c1cc(Oc2ccc(NC(=O)c3nc(OCC(F)(F)F)oc3-c3ccc(F)cc3)cc2F)ccn1 [Compound 38]
21 | 50 to 79% | 50 to 79% | < 50% | CNC(=O)c1cc(Oc2ccc(NC(=O)c3nc(NC)sc3-c3ccc(F)cc3C)cc2F)ccn1 [Compound 23]
22 | 80 to 89% | < 50% | < 50% | CNC(=O)c1cc(Oc2ccc(NC(=O)c3nc(SC)oc3-c3ccc(F)cc3F)cc2)ccn1 [Compound 6]
23 | < 50% | < 50% | < 50% | CSc1nc(C(=O)Nc2ccc(Oc3ccnc(C(=O)NC4CNC4)c3)c(F)c2)c(-c2ccc(F)s2)o1 [Compound 27]
24 | 50 to 79% | < 50% | < 50% | CSc1nc(C(=O)Nc2ccc(Oc3cc4cnn(C)c4cc3Br)c(F)c2)c(-c2ccc(F)cc2)o1 [Compound 2]
25 | < 50% | < 50% | < 50% | CSc1nc(C(=O)Nc2ccc(Oc3ccnc(N)c3Cl)c(F)c2)c(-c2ccc(F)cc2)o1 [Compound 1]
26 | < 50% | < 50% | < 50% | CSc1nc(C(=O)Nc2ccc(Oc3ccnc(C(=O)NC4COC4)c3)c(F)c2)c(-c2ccc(F)c(F)c2)o1 [Compound 37]
